Measured values published in patent US8834910B2, “Sustained release dispenser comprising two or more sex pheromone substances” (Shin-Etsu Chemical Co., Ltd., priority 2003, dated 2014).

Assay: Vapor pressure by the gas flow method (OECD guideline)
Assay type: physicochemical
Settings: head: 20° C.; text: gas flow method at 25° C.
Method: Chemical structure, relation with a target insect and carbon number of each component are listed in the pest control of the pear and peach in Japan. The vapor pressure was measured by the gas flow method at 25° C. according to the “Addendum to the OECD chemical test guideline, issues 7 and 8” (Adopted on Jul. 27, 1995).

Compound	Vapor pressure (20° C.) (Pa)
CCC(C)CCCCCCCCCOC(C)=O (stereo not drawn) [10-methyldodecyl acetate]	0.186 Pa
C=CCCCCCCCCCCOC(C)=O [11-dodecenyl acetate]	0.246 Pa
CCC/C=C\CCCCCCCO [Z-8-dodecene-1-ol]	0.980 Pa
CCC/C=C\CCCCCCCOC(C)=O [Z-8-dodecenyl acetate]	0.267 Pa
CC/C=C\CCCCCCCCOC(C)=O [Z-9-dodecenyl acetate]	0.267 Pa
CCCC/C=C\CCCCCCCCOC(C)=O [Z-9-tetradecenyl acetate]	0.100 Pa
CC/C=C\CCCCCCCCCCO [Z-11-tetradecene-1-ol]	0.070 Pa
CC/C=C\CCCCCCCCCCOC(C)=O [Z-11-tetradecenyl acetate]	0.100 Pa
CCCCCC/C=C\CCC(=O)CCCCCCCCC [Z-13-icosen-10-one]	0.005 Pa
